Reference: patent US20230271933A1, “HETEROCYCLIC IMMUNOMODULATOR” (Beijing Innocare Pharma Tech Co., Ltd., priority 2020, published 2023)

Columns and labels:
[1] = system: NCI-H929 human myeloma cells; assay: Inhibition of the proliferation of NCI-H929 cells (luminescent cell viability, CTG); assay type: cell-based; settings: Homo sapiens, NCI-H929, 144 h, 6 days, CellTiter-Glo
Protocol: The effect of the compounds of the present invention on the proliferation of NCI-H929 human myeloma cells was evaluated by using a luminescent cell viability test experiment.
The compound was dissolved and diluted to 5 mM in DMSO, and then serially diluted 4-fold in DMSO to a minimum concentration of 0.31 μM. Each concentration was further diluted 50-fold with RPMI 1640 medium (Thermo Fisher, Cat. No. 72400-047). If the IC50 value of the compound was relatively low, the initial concentration of the compound could be lowered.
NCI-H929 cells (Nanjing Cobioer, Cat. No. CBP60243) were cultured in RPMI 1640 complete medium [containing 10% FBS (GIBCO, Cat. No. 10099-141) and 100 units/mL penicillin-streptomycin (Thermo Fisher, Cat. No. 15140122)]. Cells (15000 cells/mL) were plated in 90 μL of the complete medium in a 96-well plate and cultured overnight, and then 10 μL of the compound solution was added into each well. The cells were cultured in an incubator at 37° C. and 5% CO2 for 6 days. Then the cell culture plate was taken out and balanced to room temperature according to the instruction of the CellTilter-Glo (CTG) kit (Promega, Cat. No. G7572). 50 μL CTG reagent was added for complete lysis, the plate was placed at room temperature for 10 minutes, and the luminescence signal was read with a microplate reader (EnVision, Perkin Elmer). The group containing 0.2% DMSO medium was used as 0% inhibition. The XLfit software was used to plot the compound inhibition curve and calculate the inhibitory IC50 value.

[2] = target: hERG potassium ion channel (Homo sapiens, UniProt Q12809); assay: Blockade of the hERG potassium ion channel (whole cell patch clamp); assay type: cell-based; settings: HEK293 cells stably overexpressing hERG, pH 7.4, tail current, read-out: The percentage of the inhibition to the hERG current at the solubility of 3 μM (n = 2)
Chain of hERG potassium ion channel (Q12809 whole entry): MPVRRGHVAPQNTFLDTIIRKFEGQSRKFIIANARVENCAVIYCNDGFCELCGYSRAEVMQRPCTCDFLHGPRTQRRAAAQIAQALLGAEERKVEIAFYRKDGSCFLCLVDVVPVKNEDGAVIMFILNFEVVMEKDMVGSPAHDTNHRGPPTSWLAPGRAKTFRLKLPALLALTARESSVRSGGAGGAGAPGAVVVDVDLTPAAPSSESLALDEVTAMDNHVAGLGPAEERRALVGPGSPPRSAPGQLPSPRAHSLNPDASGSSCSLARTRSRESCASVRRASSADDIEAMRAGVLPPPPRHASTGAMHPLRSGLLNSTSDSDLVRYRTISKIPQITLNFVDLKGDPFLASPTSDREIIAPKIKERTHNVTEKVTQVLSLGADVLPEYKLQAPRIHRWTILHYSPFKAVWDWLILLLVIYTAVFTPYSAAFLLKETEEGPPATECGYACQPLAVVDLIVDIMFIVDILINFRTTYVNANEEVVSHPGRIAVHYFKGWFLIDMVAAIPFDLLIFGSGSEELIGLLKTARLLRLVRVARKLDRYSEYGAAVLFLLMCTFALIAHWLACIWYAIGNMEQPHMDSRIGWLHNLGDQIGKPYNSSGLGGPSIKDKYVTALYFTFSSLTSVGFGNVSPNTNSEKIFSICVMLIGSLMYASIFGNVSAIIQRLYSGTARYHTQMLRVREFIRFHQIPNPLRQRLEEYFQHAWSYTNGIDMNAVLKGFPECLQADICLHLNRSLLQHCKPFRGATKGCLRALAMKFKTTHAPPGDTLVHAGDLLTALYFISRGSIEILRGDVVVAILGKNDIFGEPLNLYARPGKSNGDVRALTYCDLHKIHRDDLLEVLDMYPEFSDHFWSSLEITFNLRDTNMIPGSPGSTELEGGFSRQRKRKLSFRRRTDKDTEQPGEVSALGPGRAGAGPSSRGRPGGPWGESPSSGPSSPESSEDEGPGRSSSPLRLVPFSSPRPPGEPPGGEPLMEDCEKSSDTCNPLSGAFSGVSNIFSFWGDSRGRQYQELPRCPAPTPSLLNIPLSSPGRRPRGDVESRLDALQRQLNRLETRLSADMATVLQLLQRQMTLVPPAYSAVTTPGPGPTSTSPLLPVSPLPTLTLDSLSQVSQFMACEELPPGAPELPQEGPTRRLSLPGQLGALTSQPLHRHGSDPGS
Protocol: The effect of the compound of the present invention on possible arrhythmias was assessed by determining the blockade of the hERG potassium ion channel.
The experiment method was summarized as follows: • Extracellular fluid: 140 mM NaCl, 3.5 mM KCl, 1 mM MgCl2, 2 mM CaCl2, 10 mM D-glucose, 10 mM HEPES, 1.25 mM NaH2PO4, pH=7.4. • Electrode internal solution: 20 mM KCl, 115 mM K-aspartate, 1 mM MgCl2, 5 mM EGTA, 10 mM HEPES, 2 mM Na2-ATP, pH=7.2. • Compound solution: the compound to be tested was dissolved in DMSO and prepared into a stock solution having a concentration of 10 mM, then diluted into the concentration of 3 mM with DMSO, and then diluted into a solution having a concentration of 3 μM with the extracellular solution for subsequent use. • Cell culture: the HEK293 cell line with the stable hERG potassium channel overexpression (Creacell, Cat. No. A-0320) was cultured in a DMEM medium (Gibco, Cat. No. 11995-065) containing […] (Gibco, Cat. No. 1428478) and 0.8 mg/mL G418 (Amresco, Cat. No. E859-5G) at the culture temperature of 37° C. under the carbon dioxide concentration of […]. The spent medium was removed and the cells were washed once with PBS (Gibco, Cat. No. 1009-141). Then 1 mL TrypLE™ Express solution (Gibco, Cat. No. 12604021) was added and the cells were incubated at 37° C. […]. When the cells were detached from the bottom of the dish, 5 mL of complete medium preheated at 37° C. was added. The cell suspension was transferred to a sterile centrifuge tube and centrifuged at 1000 rpm for 5 minutes before cell collection. Cells were inoculated in 6 cm cell culture dishes at the cell inoculation volume of 2.5*10^5 per dish (final volume: 5 mL). Before the patch clamp detection experiment, 3*10^3 cells were plated on the cover slips, cultured in 24-well plates (final volume: 500 μL), and detected 18 hours later. • Voltage stimulation protocol by recording the whole-cell hERG potassium current with the whole cell patch clamp: after forming a whole-cell seal, the cell membrane voltage was clamped at −80 mV. The clamping voltage was depolarized from −80 mV to −50 mV and maintained for 0.5 seconds (as leakage current detection), then stepped to 30 mV and maintained for 2.5 seconds, then quickly returned to −50 mV and maintained for 4 seconds to excite the hERG channel tail current (Peak tail current), the hERG potassium current was recorded every other 10 seconds. Experiment data were collected with EPC-10 amplifier (HEKA) and stored in PatchMaster (HEKA v2x73) software. • Determination: A capillary glass tube (Sutter Instruments) was drawn into a recording electrode with a microelectrode drawing instrument (Sutter Instruments). The cell-loaded cover slip was removed from the 24-well plate placed in the incubator and then placed under an inverted microscope. […] In the whole-cell recording mode, the slow capacitance compensation was performed and the membrane capacitance and the series resistance were recorded, during which the leakage compensation was not applied. After the hERG tail current recorded with the whole cell was stabilized for 3-5 minutes, 8 mL of the compound-free extracellular fluid (blank control) and 8 mL of 3 μM solution of the compound to be tested were sequentially flowed through the recording bath with the gravity perfusion to act on the cells for 5 minutes (or to the current stabilization). The current detected for each cell in the compound-free extracellular fluid was served as its own control. […]

| Structure (SMILES) | IC50 [1] [nM] | inhibition at 5 min, 3 µM [2] [%] |
| --- | --- | --- |
| C[C@H](c1ccc(COc2cccc3c2CN([C@H]2CCC(=O)NC2=O)C3=O)cc1)N1CCN(c2ccc(C#N)nc2)CC1 [Compound 21, 5-(4-((R)-1-(4-(((2-((S)-2,6-dioxopiperidin-3-yl)-1-oxoisoindolin-4-yl)oxy)methyl)phenyl)ethyl)piperazin-1-yl)-2-cyanopyridine] | 0.04 | 49 |
| C[C@H](c1ccc(COc2cccc3c2CN([C@H]2CCC(=O)NC2=O)C3=O)cc1)N1CCN(c2ccc(C#N)cc2F)CC1 [Compound 6, 4-(4-((R)-1-(4-(((2-((S)-2,6-dioxopiperidin-3-yl)-1-oxoisoindolin-4-yl)oxy)methyl)phenyl)ethyl)piperazin-1-yl)-3-fluorobenzonitrile] | 0.1 | 52 |
| C[C@H](c1ccc(COc2cccc3c2CN([C@H]2CCC(=O)NC2=O)C3=O)cc1)N1CCN(c2ccc(C#N)cn2)CC1 [Compound 16, 6-(4-((R)-1-(4-(((2-((S)-2,6-dioxopiperidin-3-yl)-1-oxoisoindolin-4-yl)oxy)methyl)phenyl)-ethyl)piperazin-1-yl)nicotinonitrile] | 0.1 | 58 |
| C[C@H](c1ccc(COc2cccc3c2CN([C@H]2CCC(=O)NC2=O)C3=O)cc1)N1CCN(c2ncc(C#N)cc2F)CC1 [Compound 22, 6-(4-((R)-1-(4-(((2-((S)-2,6-dioxopiperidin-3-yl)-1-oxoisoindolin-4-yl)oxy)methyl)phenyl)-ethyl)piperazin-1-yl)-5-fluoronicotinonitrile] | 0.6 | 20 |
